From patent US20250213547A1, “METHODS OF TREATING NEUROLOGICAL DISEASES” (priority 2022, published 2025)
Values joined by “and” are separate entries in the source; they are usually repeats but may differ in a detail not shown here. Equal values may be shown once.

Assays:
[1] = tested on: seizure frequency in developmental and/or epileptic encephalopathy patients; assay: Adult DEE patients: antiseizure efficacy (seizure frequency); type: in vivo, human
Description: The third clinical trial was a randomized, double-blind, placebo controlled study. […] After the completion of Part A, 16 patients continued in Part B with open-label treatment for 60 additional days. Patients were included in the trial if they were 18-65 years of age with an established diagnosis of DEE, such as Lennox-Gastaut syndrome, Dravet syndrome, or tuberous sclerosis complex. For enrollment, patients were required to have had at least two bilateral motor seizures per month in the three months prior. In addition, during the 4-week baseline period prior to dosing, patients were required to have incurred at least one bilateral motor seizure. Exclusion criteria included abnormal ECG, degenerative eye disease, or admission to emergency care for treatment of status epilepticus that required mechanical ventilation.
Only patients having at least one bilateral seizure during the baseline study were eligible to continue. […] The range of seizure types included tonic-clonic, drop seizures, tonic, atonic, bilateral clonic, myoclonic-atonic, myotonic-tonic-clonic, and focal seizures. Aside from seizure history, subjects were also enrolled based on an establish diagnosis of DEE, such as Lennox-Gastaut syndrome (LGS) and Dravet syndrome (DS), tuberous sclerosis complex, and a history of special education or an overall intellectual quotient of <70. […] Subjects could continue taking 1-4 anti-seizure medicines (ASM), with the exception of stiripentol, during the study.
FIG. 9A depicts the study paradigm and FIG. 9B depicts the patient disposition. […] Part B consisted of an open-label 85-day extension study to ensure long-term safety and tolerability. The first 20 days of part A consisted of a tolerability titration phase, and thereafter a maintenance phase lasting from days 21-30.

clinical = settings: human, in vivo, 300 mg
Description: This study included nine patients in a three-sequence regimen altering fed state and formulation.
Aside from differences in a few selected time points, PK data collection procedures and analyses are similar to example 2.

plasma 24HC = assay: Adult DEE patients: pharmacodynamics, plasma 24HC; type: in vivo, human; settings: for mean plasma 24HC decrease from baseline: Part A
Protocol: Blood sample collection and analyses for measuring 24HC was performed as previously described in example 5.

[2] = Multiple rising dose study: PK of soticlestat and M-I (day 1, day 14), oral solution; type: in vivo, human; settings: for AUC24 mean / AUC∞, mean / Cmax, mean / Tmax, median: soticlestat plasma; for CLR, mean: soticlestat urine
Description: The second trial was a phase I, randomized, double-blind, placebo-controlled study, with soticlestat administered by oral solution at multiple escalating doses in healthy subjects. The criteria for subject inclusion and exclusion are similar to those of the first trial described above but with the added screening of female subjects for pregnancy. […] After a cohort finished their dosage regimen, a decision was made whether to escalate the dosage for the next cohort. Cohorts 1, 2, and 3 received 100, 300, and 400 mg once daily (QD), respectively, and cohorts 4 and 5 received 300 mg twice daily (BID) or 600 mg QD. The regimen for cohorts 4 and 5 were discontinued after subjects began experiencing adverse neurological and psychiatric events. Example 6 describes the PK protocol and the results.
The blood sampling protocol included obtaining a 4-ml blood sample for PK analysis 30 minutes pre-dose, and at 10, 15, 20, and 30 minutes and 1, 1.5, 2, 3, 4, 6, 8, 10, 12, 16, and 24 hours post-dose on days 1 and 14. Cohort 3, receiving 400 mg QD, had additional blood samples taken on day 7 at 15 and 30 minutes, and 1, 2, 4, and 8 hours post-dose. […] The median time for Cmax (Tmax) across the dose range varied between 0.33-0.5 hours. […] The 24 hour plasma area under the concentration-time curve (AUC24) for doses 100, 300, and 400 mg at day 14 were 458, 2690, and 2800 ng×h/mL, respectively. The concentration time profiles were similar from day 1 through day 14.
This study administered soticlestat to healthy male and female adults in an oral solution at escalating daily dose levels. […] Eight subjects were randomly assigned to one of five cohorts, with two subjects in each cohort receiving a placebo. Single daily dosing occurred in the morning after a minimum fast of 8 hours and subjects continued fasting until 2 hours post-dose. […] After a full review of the safety data from cohorts 1 and 2, including vitals, physical examination, BMI, adverse events, and clinical laboratory tests, […] were approved to receive increased dosages of 300 mg twice daily (BID) and 600 mg once daily (QD), respectively.
All cohorts had additional blood samples taken 30 minutes pre-dose on days 7, 11, 12, and 13. […] had additional blood samples taken for PK data on day 7 at post-dose times 15 and 30 minutes, and 1, 2, 4, and 8 hours. The PK parameter analysis was performed as described in example 2. […] A power model estimated the dose proportionality for Cmax and AUC∞ on day 1 and day 14 for cohorts receiving once daily dosing. An analysis of variance (ANOVA) assessed the variation in time dependency for Cmax and AUC∞ on day 1 and day 14 for cohorts receiving once daily dosing.
Pre-dose urine samples were collected for PK analysis for 12 hours pre-dose of day 1 and for 2 hours pre-dose of day 14. Post-dose urine samples were collected at intervals of 0-6, 6-12, and 12-24 hours.

For `O=C(c1cccnc1-c1ccncc1)N1CCC(O)(Cc2ccccc2)CC1` [soticlestat], the “change in seizure frequency from baseline, individual patients” value ([1]; Part A, three patients treated concurrently with perampanel) was “+107% and +465% and +4%”, the “median percent change from baseline seizure frequency” value (“median percent change” for short) ([1]; Part B maintenance, days 42-85 (n=16)) was −36.38% and the “median percent change” value ([1]; Part B, excluding patients taking perampanel (n=13)) was −44.66%. For the same compound, the “change in seizure frequency from baseline, individual patients” value ([1]; Part B, three patients taking perampanel) was “+297% and +398% and +175%”, the median seizure frequency ([1]; all completers except those taking perampanel) was 25.60 per 28 days and the “reduction in seizure frequency in two patients” value ([1]; last 4 weeks/month of treatment) was 100%. The “median percent change” value ([1]; last 28 days of Part B (post-hoc)) was −60.74%, the “AUC∞ lower, tablet fed than fasting” value (clinical) was 10.6% and the Tmax (clinical) was 31.8 min. The “mean Cmax decrease, tablet fed compared to fasted” value (clinical) was 59.7%, the “AUC∞ lower with tablet compared with oral solution” value (clinical; po) was 15.8% and the “Cmax lower with tablet compared with oral solution” value (clinical; po) was 36.9%. The Tmax (clinical; po) was 21 min, the “mean plasma 24HC decrease from baseline” value (plasma 24HC; day 11) was 69.76% and the “mean plasma 24HC decrease from baseline” value (plasma 24HC; day 21) was 76.88%. For the same compound, the “plasma 24HC mean percent change from baseline” value (from here on “plasma 24HC mean percent change”) (plasma 24HC; day 11) was −69.76%, the “plasma 24HC mean percent change” value (plasma 24HC; day 21) was −76.88% and the “plasma 24HC mean percent change” value (plasma 24HC; day 85) was −80.97%. For the same compound, the “mean percent decrease of plasma 24HC” value (plasma 24HC; end of Part B (day 85)) was 80.97%, the “accumulated exposure, AUC24 day 14” value ([2]; both, human, in vivo, 300 mg) was about 1.42 fold and the “accumulated exposure, Cmax day 14” value ([2]; both, human, in vivo, 300 mg, 14 days) was “approximately 1.74 fold”. For the same compound, the “t½z, mean” value ([2]; both, human, in vivo, 600 mg) was 290 min, the “CL/F, mean” value ([2]; human, in vivo, 600 mg) was 194 L/h and the AUC24 mean ([2]; 100 mg QD day 1) was 446 ng·h/mL. The “AUC∞, mean” value ([2]; 100 mg QD day 1) was 451 ng·h/mL, the “Cmax, mean” value ([2]; 100 mg QD day 1) was 468 ng/mL and the “Tmax, median” value ([2]; 100 mg QD day 1) was 25.2 min. For the same compound, the AUC24 mean ([2]; 100 mg QD day 14) was 458 ng·h/mL, the “AUC∞, mean” value ([2]; 100 mg QD day 14) was 509 ng·h/mL and the “Cmax, mean” value ([2]; 100 mg QD day 14) was 481 ng/mL. For the same compound, the “Tmax, median” value ([2]; 100 mg QD day 14) was 25.2 min, the AUC24 mean ([2]; 300 mg BID day 1 (first dose)) was 1460 ng·h/mL and the “AUC∞, mean” value ([2]; 300 mg BID day 1 (first dose)) was 1510 ng·h/mL. The “Cmax, mean” value ([2]; 300 mg BID day 1 (first dose)) was 1330 ng/mL, the “Tmax, median” value ([2]; 300 mg BID day 1 (first dose)) was 26.4 min and the AUC24 mean ([2]; 300 mg QD day 1) was 2030 ng·h/mL. The “AUC∞, mean” value ([2]; 300 mg QD day 1) was 2040 ng·h/mL, the “Cmax, mean” value ([2]; 300 mg QD day 1) was 2020 ng/mL and the “Tmax, median” value ([2]; 300 mg QD day 1) was 25.2 min. For the same compound, the AUC24 mean ([2]; 300 mg QD day 14) was 2690 ng·h/mL, the “AUC∞, mean” value ([2]; 300 mg QD day 14) was 2840 ng·h/mL and the “Cmax, mean” value ([2]; 300 mg QD day 14) was 3100 ng/mL. For the same compound, the “Tmax, median” value ([2]; 300 mg QD day 14) was 19.8 min, the AUC24 mean ([2]; 400 mg QD day 1) was 2500 ng·h/mL and the “AUC∞, mean” value ([2]; 400 mg QD day 1) was 2520 ng·h/mL. For the same compound, the “Cmax, mean” value ([2]; 400 mg QD day 1) was 2630 ng/mL, the “Tmax, median” value ([2]; 400 mg QD day 1) was 19.8 min and the AUC24 mean ([2]; 400 mg QD day 14) was 2800 ng·h/mL. The “AUC∞, mean” value ([2]; 400 mg QD day 14) was 3090 ng·h/mL, the “Cmax, mean” value ([2]; 400 mg QD day 14) was 2930 ng/mL and the “Tmax, median” value ([2]; 400 mg QD day 14) was 19.8 min. The AUC24 mean ([2]; 600 mg QD day 1) was 4180 ng·h/mL, the “AUC∞, mean” value ([2]; 600 mg QD day 1) was 4220 ng·h/mL and the “Cmax, mean” value ([2]; 600 mg QD day 1) was 3060 ng/mL. The “Tmax, median” value ([2]; 600 mg QD day 1) was 30 min, the “CLR, mean” value ([2]; 100 mg QD day 1) was 0.220 L/h and the “CLR, mean” value ([2]; 100 mg QD day 14) was 0.200 L/h. The “CLR, mean” value ([2]; 300 mg BID day 1) was 0.350 L/h, the “CLR, mean” value ([2]; 300 mg QD day 1) was 0.300 L/h and the “CLR, mean” value ([2]; 300 mg QD day 14) was 0.220 L/h. The “CLR, mean” value ([2]; 400 mg QD day 1) was 0.370 L/h, the “CLR, mean” value ([2]; 400 mg QD day 14) was 0.380 L/h and the “CLR, mean” value ([2]; 600 mg QD day 1) was 0.340 L/h.
